Literature values as cited in patent US11478445B2, “Method for treating acute myeloid leukemia” (Bionomics Limited, priority 2017, dated 2022).

Experiments:
[1] = test system: KG1 cells; conditions: Petit et al. 2008, Madlambayan et al. 2010; cited from earlier work
[2] = test system: KG1 cells; conditions: Petit et al. 2008; cited from earlier work

COc1ccc(/C=C\c2cc(OC)c(OC)c(OC)c2)c(O)c1O [OXi4500, combretastatin-A1]
total ROS levels [1]: increase in total ROS levels

COc1ccc(/C=C\c2cc(OC)c(OC)c(OC)c2)cc1OP(=O)(O)O [combretastatin-A4-P]
total ROS levels [1]: increase in total ROS levels | cell cycle [2]: induces G2/M cell cycle arrest
